Test results as given in US7034046B2, “NR1H4 nuclear receptor binding compounds” (Phenex Pharmaceuticals AG, priority 2001, dated 2006).
Where two headings read alike, the source gives them in different places.

Assays:
human FXR alpha (NR1H4) = target: T1, human FXR alpha (NR1H4) (Homo sapiens, UniProt Q96RI1); test: In vitro screening for FXR binding to coactivator TIF2 (LANCE TR-FRET); assay type: biochemical
T1 construct: human FXR alpha (NR1H4—(Acc. No:AF384555)) encoding amino acids 187–472; made in house; host or cells: E. coli BL21
T1 sequence (Q96RI1 187-472 isoform Q96RI1-2): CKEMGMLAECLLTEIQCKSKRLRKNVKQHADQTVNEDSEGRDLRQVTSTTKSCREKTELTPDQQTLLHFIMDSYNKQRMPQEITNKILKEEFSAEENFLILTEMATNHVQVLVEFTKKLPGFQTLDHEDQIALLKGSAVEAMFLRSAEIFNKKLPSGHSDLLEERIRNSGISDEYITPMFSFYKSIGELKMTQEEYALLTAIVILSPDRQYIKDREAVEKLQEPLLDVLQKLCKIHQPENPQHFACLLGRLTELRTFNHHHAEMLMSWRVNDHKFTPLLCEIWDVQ
T1 sequence (Q15596 548-878 partner limits assumed): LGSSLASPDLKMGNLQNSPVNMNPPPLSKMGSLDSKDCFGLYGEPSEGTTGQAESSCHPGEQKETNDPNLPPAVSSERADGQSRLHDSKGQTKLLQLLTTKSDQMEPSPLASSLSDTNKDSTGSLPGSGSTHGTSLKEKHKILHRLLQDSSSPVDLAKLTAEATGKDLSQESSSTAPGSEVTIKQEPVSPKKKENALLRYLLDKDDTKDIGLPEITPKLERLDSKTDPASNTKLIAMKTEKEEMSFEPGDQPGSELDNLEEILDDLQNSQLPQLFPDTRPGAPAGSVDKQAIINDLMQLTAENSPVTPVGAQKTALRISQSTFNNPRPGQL
Source text: For screening purposes a fragment of the open reading frame of human FXR alpha (NR1H4—(Acc. No:AF384555)) encoding amino acids 187–472 was amplified by standard RT PCR procedures (see FIGS. 2A and 2B; SEQ ID NO. 1 and 2). Starting material was total RNA derived from human liver. The resulting cDNA obtained after reverse transcription was subsequently cloned using the Gateway™ recombination technology (Invitrogen, USA) into the expression plasmid pDest15 (Invitrogen, USA). This construct was used to express a recombinant GST-FXR fusion protein in E.coli (BL21 strain). A pDEST 17 derivative clone harboring an additional sequence encoding amino acids 548–878 of human TIF2 (Acc. No: XM—011633 RefSeq) (see FIGS. 2C and 2D, SEQ ID NO. 3 and 4) was constructed using Gateway™ recombination technology (Invitrogen, USA) in order to obtain a construct which was used to express recombinant His-tagged TIF2 fragment could be expressed in E. coli. For E. coli expression of both constructs, plasmid DNA was transformed into chemically competent E. coli BL21 (Invitrogen, USA) and cells were grown to an OD600 of 0.4–0.7 before expression was induced by addition of 0.5 mM IPTG according instructions of the manufacturer (Invitrogen). After induction for 8 hours at 30° C. cells were harvested by centrifugation for 10 minutes at 5000×g. Fusion proteins were affinity purified using Glutathion sepharose (Pharmacia) or Ni-NTA Agarose (QIAGEN) according to the instructions of the respective manufacturer. Recombinant proteins were dialyzed against 20 mM Tris/HCL pH 7.9; 60 mM KCl; 5 mM MgCl2; 1 mM DTT, 0.2 mM PMSF; and 10% glycerol. The TIF2 fragment was subsequently biotinylated by addition of 40–120 μl of a biotinamidocaproate N-hydroxysuccinimide-ester (Sigma) solution (20 mg/ml in DMSO). Overhead rotating samples were incubated for two hours at room temperature. Unincorporated label was then separated using G25 Gel filtration chromatography (Pharmacia Biotech, Sweden). Protein containing fractions from the column were pooled and tested for activity in the assay as described below.
For screening of compound libraries as provided for by the methods shown below in the examples for substances which influence the FXR/Tif 2 interaction, the Perkin Elmer LANCE technology was applied. This method relies on the binding dependent energy transfer from a donor to an acceptor fluorophore attached to the binding partners of interest. For ease of handling and reduction of background from compound fluorescence LANCE technology makes use of generic fluorophore labels and time resolved detection (for detailed description See Hemmilä I, Blomberg K and Hurskainen P, Time-resolved resonance energy transfer (TR-FRET) principle in LANCE, Abstract of Papers Presented at the 3rd Annual Conference of the Society for Biomolecular Screening, Sep., California (1997)).
For screening, 20–200 ng of biotinylated Tif 2 fragment and 10–200 ng of GST-FXR fragment were combined with 0.5–2 nM LANCE Eu-(W1024) labeled anti-GST antibody (Perkin Elmer) and 0.5–2 μg of Highly fluorescent APC-labeled streptavidin (Perkin Elmer) in the presence of 50 μM of individual compounds to be screened in a total volume of 25 μl of 20 mM Tris/HCl pH 7.9; 60 mM KCl; 5 mM MgCl2; and 160 ng/μl BSA. DMSO content of the samples was kept below 4%. Samples were incubated for a minimum of 60 minutes in the dark at room temperature in FIA-Plates black 384well med. binding (Greiner).
The LANCE signal was detected by a Perkin Elmer VICTOR2V™ Multilabel Counter applying the detection parameters listed in Table 3, below. The results were visualized by plotting the ratio between the emitted light at 665 nm and at 615 nm. For every batch of recombinant proteins amount of proteins and labeling reagents giving the most sensitive detection of hits was determined individually by analysis of dose response curves for chenodeoxycholic acid.

FXR = target: T2, FXR (Homo sapiens, UniProt Q96RI1); test: FXR-mediated transactivation, luciferase reporter in stable HEK293FXR reporter cell line; assay type: cell-based; conditions: HEK293FXR reporter cells, 16 hours
T2 construct: expressed in transfected cells
T2 sequence (Q96RI1 1-472 isoform Q96RI1-2): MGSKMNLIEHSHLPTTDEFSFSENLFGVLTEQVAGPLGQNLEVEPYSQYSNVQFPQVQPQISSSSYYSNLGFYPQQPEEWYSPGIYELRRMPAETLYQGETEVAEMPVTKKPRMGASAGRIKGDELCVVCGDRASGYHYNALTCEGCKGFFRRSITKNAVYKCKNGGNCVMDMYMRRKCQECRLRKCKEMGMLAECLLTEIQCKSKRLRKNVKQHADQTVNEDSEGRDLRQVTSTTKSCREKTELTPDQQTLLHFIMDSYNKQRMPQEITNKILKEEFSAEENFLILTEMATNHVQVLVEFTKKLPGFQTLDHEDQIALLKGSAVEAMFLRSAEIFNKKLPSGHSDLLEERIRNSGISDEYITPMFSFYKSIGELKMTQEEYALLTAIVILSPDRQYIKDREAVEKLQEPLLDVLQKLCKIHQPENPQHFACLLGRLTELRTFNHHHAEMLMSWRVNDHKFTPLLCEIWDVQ
Source text: A compound according to the invention (experiments shown were done with MOLSTRUCTURE LN 0000006734; see Table 1 for structural formula) can mediate transactivation of FXR-mediated transcription in a HEK293 reporter cell line. […] The full length human FXR (accession U68233) and the full length human RXRα (accession P19793) were cloned into the […]30 applying the manufacturer protocols for the GatewayTM system (Invitrogen). The FXR response elements were cloned (upper case). [NT] ID NO. 5) was obtained from the human IBAB-P promoter (Grober et al 1999, JBC 274, pp. 29749-29754). A stable clone was selected and seeded at a density of 5×10^4 cells per well in 48 well plates. […] Variations of duplicate measurements are within 20%.

[1] = average of multiple experiments, read-out: EC50 AVG

Structure (SMILES) | EC50 (human FXR alpha (NR1H4); [1]) [nM] | EFFIC AVG (average efficacy, % activity relative to CDCA control agonist) (human FXR alpha (NR1H4)) [%] | agonist of the NR1H4 human nuclear receptor (human FXR alpha (NR1H4)) | also measured
CC(C)c1onc(-c2c(Cl)cccc2Cl)c1COc1ccc(CCC(=O)O)cc1 [formula IV] | – | – | active as agonist | –
CC(C)c1onc(-c2c(Cl)cccc2Cl)c1COc1ccc(/C=C/C(=O)O)c(Cl)c1 [formula V] | – | – | active as agonist | –
CC(C)c1onc(-c2c(Cl)cccc2Cl)c1COc1ccc(Oc2ccc(C(=O)O)cc2)cc1 [formula III] | – | – | active as agonist | –
CC(C)c1onc(-c2c(Cl)cccc2Cl)c1COc1ccc(OCC(=O)O)cc1 [formula (II)] | – | – | – | EC50 (human FXR alpha (NR1H4); read-out: EC50 at FXR (half-maximal effective concentration)): 230 nM

Continued, in another order:

EC50 (human FXR alpha (NR1H4); [1]) [nM] | EFFIC AVG (average efficacy, % activity relative to CDCA control agonist) (human FXR alpha (NR1H4)) [%] | agonist of the NR1H4 human nuclear receptor (human FXR alpha (NR1H4)) | Structure (SMILES) | also measured
430 | 115 | – | CC(C)c1onc(-c2c(Cl)cccc2Cl)c1COc1ccc(CCC(=O)O)cc1 [LN0000006765] | –
230 | 117 | – | CC(C)c1onc(-c2c(Cl)cccc2Cl)c1COc1ccc(OCC(=O)O)cc1 [LN0000006767] | –
2600 | 134 | – | CC(C)c1onc(-c2c(Cl)cccc2Cl)c1COc1ccc2cc(C(=O)O)ccc2c1 [LN0000000169] | Luciferase reporter activity (FXR; 0.08 μM): 1630.0; Luciferase reporter activity (FXR; 0.4 μM): 2754.0; Luciferase reporter activity (FXR; 1 μM): 4600.0; Luciferase reporter activity (FXR; 2 μM): 5775.7; Luciferase reporter activity (FXR; 10 μM): 6829.3; Luciferase reporter activity (FXR; 50 μM): 13375.7
720 | 108 | – | COC(=O)CCc1ccc(OCc2c(-c3c(Cl)cccc3Cl)noc2C(C)C)cc1 [LN0000006764] | –
50 | 100 | – | CC(C)c1onc(-c2c(Cl)cccc2Cl)c1COc1ccc(/C=C/C(=O)O)c(Cl)c1 [LN0000006772] | –
600 | 85 | – | CC(C)c1onc(-c2c(Cl)cccc2Cl)c1COc1ccc(Oc2ccc(C(=O)O)cc2)cc1 [LN0000006734] | Luciferase reporter activity (FXR; 0.08 μM): 2153.0; Luciferase reporter activity (FXR; 0.4 μM): 2991.5; Luciferase reporter activity (FXR; 1 μM): 5360.5; Luciferase reporter activity (FXR; 2 μM): 6330.5; Luciferase reporter activity (FXR; 10 μM): 8523.5; Luciferase reporter activity (FXR; 50 μM): 13309.5; EC50 (FXR; read-out: EC50 of dose-dependent transactivation of the reporter gene luciferase by FXR): ~1000 nM
